Measured values: patent publication US20240252488A1 (KOREA RESEARCH INSTITUTE OF CHEMICAL TECHNOLOGY, priority 2020, published 2024)

Tests used:
[1] = molecular target: T1, MLKL (Homo sapiens, UniProt Q8NB16); experiment: Measurement of binding affinity with MLKL receptor (competitive binding assay, Kd); set-up: made in house; host or cells: HEK 293 cell line (T7 phage in E. coli BL21-derived host is also described)
T1 sequence (Q8NB16 1-471): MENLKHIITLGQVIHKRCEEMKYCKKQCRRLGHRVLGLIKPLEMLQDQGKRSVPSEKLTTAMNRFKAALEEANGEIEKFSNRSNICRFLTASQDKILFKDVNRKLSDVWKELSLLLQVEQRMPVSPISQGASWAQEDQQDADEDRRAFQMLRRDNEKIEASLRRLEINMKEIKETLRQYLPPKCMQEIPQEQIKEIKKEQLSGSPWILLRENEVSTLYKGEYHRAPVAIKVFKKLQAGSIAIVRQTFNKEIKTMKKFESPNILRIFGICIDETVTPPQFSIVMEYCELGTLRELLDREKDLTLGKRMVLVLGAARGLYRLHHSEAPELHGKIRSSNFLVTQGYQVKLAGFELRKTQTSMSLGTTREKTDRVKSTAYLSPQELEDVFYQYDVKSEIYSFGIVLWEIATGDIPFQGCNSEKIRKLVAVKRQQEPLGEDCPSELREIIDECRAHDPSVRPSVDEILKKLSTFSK
In short: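 MLKL was produced in HEK 293 cells and tagged with DNA for detection. Liganded beads were blocked with excess biotin and washed to cut non-specific binding, then compounds (111× DMSO stocks, 0.9% DMSO in assay) competed for binding. Eluate kinase was measured by qPCR for Kd.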

[2] = tested on: FADD−/− Jurkat cells; experiment: Necroptosis inhibition assay, TNF-α-induced necroptosis (CellTiter-Glo 2.0); format: cell-based, human; settings: TNF-α 15 ng/mL; for Necroptosis inhibition assay (Rescue %) 1 μM: compound 1 μM; for Necroptosis inhibition assay (Rescue %) 10 μM: compound 10 μM
In short: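 Compound is added to cells at final concentrations of 0.1, 1 and 10 μM and left 30 minutes at room temperature. Necroptosis is induced with 15 ng/mL TNF-α, culture continues 20 to 24 hours at 37° C, and ATP-based luminescence reports viability.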

[3] = molecular target: T1, MLKL; experiment: MLKL degradation assay in HepG2 cell line (western blot); format: cell-based; set-up: endogenous in cells; host or cells: HepG2 or HaCaT; settings: cell line not given; for Degradation assay (Degradation %) 1 μM: compound 1 μM; for Degradation assay (Degradation %) 10 μM: compound 10 μM
In short: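 Chemiluminescent western blot signal reports remaining MLKL protein in HepG2 cells after 20-24 h treatment with compound at a final 1 or 10 μM. Equal protein (10-15 μg, BCA) is loaded per lane.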

SMILES | Kd [1] [nM] | Necroptosis inhibition assay (Rescue %) 1 μM [2] [%] | Necroptosis inhibition assay (Rescue %) 10 μM [2] [%] | Degradation assay (Degradation %) 1 μM [3] [%] | Degradation assay (Degradation %) 10 μM [3] [%] | Necroptosis inhibition assay (Rescue %) 1 μM ([2]; FADD−/− Jurkat cells) [%] | Necroptosis inhibition assay (Rescue %) 10 μM ([2]; FADD−/− Jurkat cells) [%]
Nc1ncc(-c2cnn(C3CCN(CCC4CCN(C(=O)CC5CCN(c6cccc7c6C(=O)N(C6CCC(=O)NC6=O)C7=O)CC5)CC4)CC3)c2)nc1C(=O)O[C@@H](C(=O)Nc1ccc(F)cc1)c1ccccc1 (stereo partly drawn) [TDH-366, (R)-2-((4-fluorophenyl)amino)-2-oxo-1-phenylethyl 3-amino-6-(1-(1-(2-(1-(2-(1-(2-(2,6-dioxopiperidin-3-yl)-1,3-dioxoisoindolin-4-yl)piperidin-4-yl)acetyl)piperidin-4-yl)ethyl)piperidin-4-yl)-1H-pyrazol-4-yl)pyrazine-2-carboxylate] | 1.2 | 45.56 | 22.39 | 87.27 | 80.23 |  | 
Nc1ncc(-c2cnn(C3CCN(C(=O)C4CCN(C(=O)CNc5cccc6nnn(C7CCC(=O)NC7=O)c(=O)c56)CC4)CC3)c2)nc1C(=O)O[C@@H](C(=O)Nc1ccc(F)cc1)c1ccccc1 (stereo partly drawn) [TDH-413, (R)-2-((4-fluorophenyl)amino)-2-oxo-1-phenylethyl 3-amino-6-(1-(1-(1-((3-(2,6-dioxopiperidin-3-yl)-4-oxo-3,4-dihydrobenzo[d][1,2,3]triazin-5-yl)glycyl)piperidine-4-carbonyl)piperidin-4-yl)-1H-pyrazol-4-yl)pyrazine-2-carboxylate] | 0.92 |  |  | 71.41 | 57.83 | 24.79 | 18.59
Nc1ncc(-c2cnn(C3CCN(CCC4CCN(c5cc6c(cc5F)C(=O)N(C5CCC(=O)NC5=O)C6=O)CC4)CC3)c2)nc1C(=O)O[C@@H](C(=O)Nc1ccc(F)cc1)c1ccccc1 (stereo partly drawn) [TDH-520, (R)-2-((4-fluorophenyl)amino)-2-oxo-1-phenylethyl 3-amino-6-(1-(1-(2-(1-(2-(2,6-dioxopiperidin-3-yl)-6-fluoro-1,3-dioxoisoindolin-5-yl)piperidin-4-yl)ethyl)piperidin-4-yl)-1H-pyrazol-4-yl)pyrazine-2-carboxylate] | 19 |  |  | 92.44 | 94.32 | 63.56 | 36.11
Nc1ncc(-c2cnn(C3CCN(CCC4CCN(c5ccc6c(c5)C(=O)N(C5CCC(=O)NC5=O)C6=O)CC4)CC3)c2)nc1C(=O)O[C@@H](C(=O)Nc1ccc(F)cc1)c1ccccc1 (stereo partly drawn) [TDH-203, (R)-2-((4-fluorophenyl)amino)-2-oxo-1-phenylethyl 3-amino-6-(1-(1-(2-(1-(2-(2,6-dioxopiperidin-3-yl)-1,3-dioxoisoindolin-5-yl)piperidin-4-yl)ethyl)piperidin-4-yl)-1H-pyrazol-4-yl)pyrazine-2-carboxylate] | 3.2 | 64.32 | 40.46 | 61.41 | 34.74 |  | 
Nc1ncc(-c2cnn(C3CCN(CCC4CCN(C(=O)CNc5cccc6c5C(=O)N(C5CCC(=O)NC5=O)C6=O)CC4)CC3)c2)cc1C(=O)OC(C(=O)Nc1ccc(F)cc1)c1ccccc1 (stereo not drawn) [TDH-303, 2-((4-fluorophenyl)amino)-2-oxo-1-phenylethyl 2-amino-5-(1-(1-(2-(1-((2-(2,6-dioxopiperidin-3-yl)-1,3-dioxoisoindolin-4-yl)glycyl)piperidin-4-yl)ethyl)piperidin-4-yl)-1H-pyrazol-4-yl)nicotinate] | 13 | 10.34 | 17.69 | 82.82 | 82.05 |  | 
Nc1ncc(-c2cnn(C3CCN(CC4CCN(c5ccc6nnn(C7CCC(=O)NC7=O)c(=O)c6c5)CC4)CC3)c2)nc1C(=O)O[C@@H](C(=O)Nc1ccc(F)cc1)c1ccccc1 (stereo partly drawn) [TDH-172, (R)-2-((4-fluorophenyl)amino)-2-oxo-1-phenylethyl 3-amino-6-(1-(1-((1-(3-(2,6-dioxopiperidin-3-yl)-4-oxo-3,4-dihydrobenzo[d][1,2,3]triazin-6-yl)piperidin-4-yl)methyl)piperidin-4-yl)-1H-pyrazol-4-yl)pyrazine-2-carboxylate] | 26 | 85.53 | 74.34 | 59.24 | 57.1 |  | 
Nc1ncc(-c2cnn(C3CCN(CCC4CCN(CC5CCN(c6cc7c(cc6F)C(=O)N(C6CCC(=O)NC6=O)C7=O)CC5)CC4)CC3)c2)nc1C(=O)O[C@@H](C(=O)Nc1ccc(F)cc1)c1ccccc1 (stereo partly drawn) [TDH-514, (R)-2-((4-fluorophenyl)amino)-2-oxo-1-phenylethyl 3-amino-6-(1-(1-(2-(1-((1-(2-(2,6-dioxopiperidin-3-yl)-6-fluoro-1,3-dioxoisoindolin-5-yl)piperidin-4-yl)methyl)piperidin-4-yl)ethyl)piperidin-4-yl)-1H-pyrazol-4-yl)pyrazine-2-carboxylate] | 0.9 |  |  | 55.53 | 84.44 | 24.14 | −67.06
Nc1ncc(-c2cnn(C3CCN(CCCN4CCN(C(=O)C5CCN(c6cccc7c6C(=O)N(C6CCC(=O)NC6=O)C7=O)CC5)CC4)CC3)c2)nc1C(=O)OC(C(=O)Nc1ccc(F)cc1)c1ccccc1 (stereo not drawn) [TDH-239, 2-((4-fluorophenyl)amino)-2-oxo-1-phenylethyl 3-amino-6-(1-(1-(3-(4-(1-(2-(2,6-dioxopiperidin-3-yl)-1,3-dioxoisoindolin-4-yl)piperidine-4-carbonyl)piperazin-1-yl)propyl)piperidin-4-yl)-1H-pyrazol-4-yl)pyrazine-2-carboxylate] | 3.8 | 40.3 | 23.29 | 53.9 | 65.78 |  | 
Nc1ncc(-c2cnn(C3CCN(CCCN4CCN(C(=O)CC5CCN(c6ccc7c(c6)C(=O)N(C6CCC(=O)NC6=O)C7=O)CC5)CC4)CC3)c2)nc1C(=O)O[C@@H](C(=O)Nc1ccc(F)cc1)c1ccccc1 (stereo partly drawn) [TDH-369, (R)-2-((4-fluorophenyl)amino)-2-oxo-1-phenylethyl 3-amino-6-(1-(1-(3-(4-(2-(1-(2-(2,6-dioxopiperidin-3-yl)-1,3-dioxoisoindolin-5-yl)piperidin-4-yl)acetyl)piperazin-1-yl)propyl)piperidin-4-yl)-1H-pyrazol-4-yl)pyrazine-2-carboxylate] | 1.1 | 48.04 | 22.49 | 73.33 | 94 |  | 
COc1ccc(C(=O)N2CCC3(CC2)CC(N2CCC(CN4CCC(n5cc(-c6cnc(N)c(C(=O)O[C@@H](C(=O)Nc7ccc(F)cc7)c7ccccc7)n6)cn5)CC4)CC2)C3)cc1N1CCC(=O)NC1=O [TDH-503, (R)-2-((4-fluorophenyl)amino)-2-oxo-1-phenylethyl 3-amino-6-(1-(1-((1-(7-(3-(2,4-dioxotetrahydropyrimidin-1(2H)-yl)-4-methoxybenzoyl)-7-azaspiro[3.5]nonan-2-yl)piperidin-4-yl)methyl)piperidin-4-yl)-1H-pyrazol-4-yl)pyrazine-2-carboxylate] | 0.44 |  |  | 93.09 |  | 94.80 | 14.61
Nc1ncc(-c2cnn(C3CCN(CCCN4CC5CN(C(=O)COc6ccc7c(c6)C(=O)N(C6CCC(=O)NC6=O)C7=O)CC5C4)CC3)c2)nc1C(=O)O[C@@H](C(=O)Nc1ccc(F)cc1)c1ccccc1 (stereo partly drawn) [TDH-466, (R)-2-((4-fluorophenyl)amino)-2-oxo-1-phenylethyl 3-amino-6-(1-(1-(3-(5-(2-((2-(2,6-dioxopiperidin-3-yl)-1,3-dioxoisoindolin-5-yl)oxy)acetyl)hexahydropyrrolo[3,4-c]pyrrol-2(1H)-yl)propyl)piperidin-4-yl)-1H-pyrazol-4-yl)pyrazine-2-carboxylate] | 0.41 |  |  | 60.76 | 86.28 | 54.2 | 26.69
